Several values for one entry are separate records, joined by “and”; a condition that tells them apart may be missing. Identical values can stand only once. ± gives the expanded uncertainty stated by the source.
Conditions: for viscosity / mass density / speed of sound: 102 kPa, Liquid; for viscosity: Concentric cylinders viscometry; for mass density: Vibrating tube method; for speed of sound: Frequency=3 MHz, Single path-length method; for surface tension liquid-gas: Pendant drop shape

CC(CC(C)(C)C)CC(C)(C)CC(C)(C)C (stereo unspecified) [2,2,4,4,6,8,8-heptamethylnonane]
Conditions | mass density | speed of sound [m/s] | surface tension liquid-gas [mN/m] | viscosity [mPa·s]
253.15 K | 811.5 ± 2 kg/m3 and 811.4 ± 2 kg/m3 | – | – | 14.1 ± 0.1
288.15 K | 787.84 ± 0.52 kg/m3 and 787.76 ± 0.52 kg/m3 | 1305.1 ± 1 | – | –
293.15 K | 784.51 ± 0.52 kg/m3 and 784.4 ± 0.52 kg/m3 | 1286 ± 1 | – | 3.73 ± 0.03
295 K | – | – | 24.2 ± 0.3 | –
298.15 K | 781.15 ± 0.52 kg/m3 and 781.05 ± 0.52 kg/m3 | 1267.1 ± 1 | – | –
303.15 K | 777.8 ± 0.52 kg/m3 and 777.7 ± 0.52 kg/m3 | 1248.1 ± 1 | – | 2.96 ± 0.03
313.15 K | 771.09 ± 0.52 kg/m3 and 770.99 ± 0.52 kg/m3 | 1211.8 ± 1 | – | 2.4 ± 0.02
323.15 K | 764.36 ± 0.52 kg/m3 and 764.27 ± 0.52 kg/m3 | 1176.1 ± 1 | – | 1.98 ± 0.02
333.15 K | 757.62 ± 0.52 kg/m3 and 757.53 ± 0.52 kg/m3 | 1141.3 ± 1 | – | 1.66 ± 0.02

CCCCc1ccccc1 [butylbenzene]
Conditions | mass density [kg/m3] | speed of sound [m/s] | surface tension liquid-gas [mN/m] | viscosity [mPa·s]
253.15 K | 892.8 ± 2 | – | – | 2.36 ± 0.06
288.15 K | 864.7 ± 0.31 | 1373.7 ± 0.8 | – | –
293.15 K | 860.69 ± 0.31 | 1353.8 ± 0.8 | – | 1.04 ± 0.02
295 K | – | – | 28.8 ± 0.3 | –
298.15 K | 856.68 ± 0.31 | 1334.1 ± 0.8 | – | –
303.15 K | 852.65 ± 0.31 | 1314.5 ± 0.8 | – | 0.891 ± 0.021
313.15 K | 844.6 ± 0.31 | 1276.1 ± 0.8 | – | 0.773 ± 0.021
323.15 K | 836.51 ± 0.31 | 1238.4 ± 0.8 | – | 0.679 ± 0.021
333.15 K | 828.38 ± 0.31 | 1201.7 ± 0.8 | – | 0.601 ± 0.021

CCCCC1CCCCC1 [butylcyclohexane]
Conditions | mass density [kg/m3] | speed of sound [m/s] | surface tension liquid-gas [mN/m] | viscosity [mPa·s]
253.15 K | 829.9 ± 2 | – | – | 3.08 ± 0.06
288.15 K | 803.07 ± 0.73 | 1348.8 ± 1.2 | – | –
293.15 K | 799.33 ± 0.73 | 1328.3 ± 1.2 | – | 1.32 ± 0.02
294.5 K | – | – | 26.6 ± 0.4 | –
298.15 K | 795.57 ± 0.73 | 1308.1 ± 1.2 | – | –
303.15 K | 791.81 ± 0.73 | 1288 ± 1.2 | – | 1.11 ± 0.02
313.15 K | 784.27 ± 0.73 | 1248.6 ± 1.2 | – | 0.95 ± 0.021
323.15 K | 776.71 ± 0.73 | 1210.1 ± 1.2 | – | 0.826 ± 0.021
333.15 K | 769.1 ± 0.73 | 1172.6 ± 1.2 | – | 0.729 ± 0.021

CCCCCCCCCCCC [dodecane]
Conditions | mass density [kg/m3] | speed of sound [m/s] | surface tension liquid-gas [mN/m] | viscosity [mPa·s]
288.15 K | 752.41 ± 0.53 | 1317.4 ± 1 | – | –
293.15 K | 748.79 ± 0.53 | 1297.9 ± 1 | – | 1.51 ± 0.02
295 K | – | – | 24.9 ± 0.3 | –
298.15 K | 745.16 ± 0.53 | 1278.7 ± 1 | – | –
303.15 K | 741.53 ± 0.53 | 1259.5 ± 1 | – | 1.25 ± 0.02
313.15 K | 734.25 ± 0.53 | 1221.7 ± 1 | – | 1.06 ± 0.02
323.15 K | 726.94 ± 0.53 | 1184.5 ± 1 | – | 0.916 ± 0.021
333.15 K | 719.59 ± 0.53 | 1148.2 ± 1 | – | 0.798 ± 0.021

Reference: the NIST ThermoML archive (doi:10.1021/acs.jced.8b01233)
